#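 A five-concentration, 48-hour dose response in 96-well plates underlies each endpoint, interpolated linearly between surrounding concentrations. Definition used: TGI = concentration required for complete inhibition of growth.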
# Assays:
# Experiment in all cases: NCI anticancer screen, dose series, 48 h
# [1] = test system: OVCAR-8 ovarian
# [2] = test system: DMS 273 small cell lung
# [3] = test system: SNB-19 CNS
# [4] = test system: SF-268 CNS
# [5] = test system: SW-620 colon
# [6] = test system: HCC-2998 colon
# [7] = test system: SK-OV-3 ovarian
# [8] = test system: UACC-62 melanoma
# [9] = test system: NCI-H23 lung
# [10] = test system: 786-0 renal
# [11] = test system: SK-MEL-28 melanoma
# [12] = test system: SN12C renal
# [13] = test system: EKVX NSCLC
# [14] = test system: MALME-3M melanoma
# [15] = test system: SR leukemia
# [16] = test system: HOP-62 NSCLC
# [17] = test system: NCI-H226 lung
# [18] = test system: SNB-75 CNS
# [19] = test system: MOLT-4 leukemia
# [20] = test system: SF-295 CNS
# [21] = test system: RXF 393 renal
# [22] = test system: UO-31 renal
# [23] = test system: HOP-18 NSCLC
# [24] = test system: HCT-15 colon
# [25] = test system: HOP-92 NSCLC
# [26] = test system: LXFL 529 NSCLC
# [27] = test system: K-562 leukemia
# [28] = test system: HT29 colon
# [29] = test system: U251 CNS
# [30] = test system: SNB-78 CNS
# [31] = test system: IGROV1 ovarian
# [32] = test system: UACC-257 melanoma
# [33] = test system: OVCAR-4 ovarian
# [34] = test system: M19-MEL melanoma
# [35] = test system: ACHN renal
# [36] = test system: NCI-H522 lung
# [37] = test system: DMS 114 small cell lung
# [38] = test system: SK-MEL-5 melanoma
# [39] = test system: SF-539 CNS
# [40] = test system: A498 renal
# [41] = test system: DLD-1 colon
# [42] = test system: COLO 205 colon
# [43] = test system: A549 NSCLC
# [44] = test system: M14 melanoma
# [45] = test system: HL-60(TB) leukemia
# [46] = test system: CCRF-CEM leukemia
# [47] = test system: KM20L2 colon
# [48] = test system: RPMI-8226 leukemia
# [49] = test system: HCT-116 colon
structure (smiles),measurement,setting,value
CC(=O)c1ccc(N2C(=O)C3c4[nH]c5ccccc5c4C4CCC(C(C)(C)C)CC4C3C2=O)cc1 (centres undefined),TGI,[1],54.7 µM
same,TGI,[2],33.3 µM
same,TGI,[3],> 100 µM
same,TGI,[4],36.7 µM
same,TGI,[5],54.3 µM
same,TGI,[6],35.8 µM
same,TGI,[7],> 100 µM
same,TGI,[8],59.3 µM
same,TGI,[9],45.3 µM
same,TGI,[10],34.3 µM
same,TGI,[11],83.2 µM
same,TGI,[12],32.8 µM
same,TGI,[13],94.1 µM
same,TGI,[14],34.4 µM
same,TGI,[15],70.9 µM
same,TGI,[16],38.5 µM
same,TGI,[17],47.6 µM
same,TGI,[18],94.7 µM
same,TGI,[19],> 100 µM
same,TGI,[20],88.9 µM
same,TGI,[21],32.7 µM
same,TGI,[22],> 100 µM
same,TGI,[23],> 100 µM
same,TGI,[24],92.8 µM
same,TGI,[25],47.1 µM
same,TGI,[26],> 100 µM
same,TGI,[27],> 100 µM
same,TGI,[28],32.6 µM
same,TGI,[29],39.8 µM
same,TGI,[30],74.9 µM
same,TGI,[31],> 100 µM
same,TGI,[32],> 100 µM
same,TGI,[33],94.8 µM
same,TGI,[34],42.1 µM
same,TGI,[35],87.9 µM
same,TGI,[36],61.9 µM
same,TGI,[37],59.8 µM
same,TGI,[38],58.8 µM
same,TGI,[39],46.1 µM
same,TGI,[40],71.3 µM
same,TGI,[41],> 100 µM
same,TGI,[42],29.1 µM
same,TGI,[43],50.9 µM
same,TGI,[44],67.8 µM
same,TGI,[45],76.9 µM
same,TGI,[46],> 100 µM
same,TGI,[47],36.4 µM
same,TGI,[48],54 µM
same,TGI,[49],30.7 µM

# From PubChem BioAssay (NCI)
